Values of other authors, collected in patent US8716506B2, “Xylitol esters and ethers applied as alternative emulsifiers, solvents, co-emulsifiers and preservative systems for pharmaceutical and cosmetic products” (priority 2008, dated 2014).

How the values were obtained:
[1] = tested on: Haemophilus influenzae; settings: concentration of 5%
[2] = tested on: Streptococcus pneumoniae; settings: concentration of 5%
[3] = tested on: S. pneumoniae; settings: concentration of 5%

OC[C@@H](O)[C@H](O)[C@@H](O)CO [xylitol]
adherence levels in epithelial nasopharyngeal cells [1]: reduced the adherence levels
growth inhibition [2]: inhibited the growth
adherence levels in epithelial nasopharyngeal cells [3]: reduced the adherence levels

C=O [formaldehyde, Formaldehyde (methanal)]
volunteers with contact hypersensitizing (clinical tests, even in concentrations of 30 ppm of free formaldehyde): 1-9%

CC1(C)C(=O)N(CO)C(=O)N1CO [DMDM hydantoin, 1,3-Dimethylo1-5,5-dimethyl hydantoin]
volunteers with hypersensitivity in contact test (De Groot and collaborators): 57%
